Experimental data reported in US8865745B2, “Pyrazolone derivatives as PDE4 inhibitors” (Takeda GmbH, priority 2007, dated 2014).

What was measured:
PDE4B1 = PDE4B1 (Homo sapiens (Human), UniProt Q07343); test: Inhibition of PDE4 activity, [3H]cAMP SPA enzyme assay with recombinant PDE4B1; assay type: biochemical; conditions: recombinant PDE4B1 expressed in SF21 cells, 0.5 μM cAMP, 37° C.
Description: Method for Measuring Inhibition of PDE4 Activity
The PDE4B1 (GB no. L20966) was a gift of Prof. M. Conti (Stanford University, USA). It was amplified from the original plasmid (pCMV5) via PCR with primers Rb18 (5′-[…]-3′) and Rb10 (5′-[…]-3′) and cloned into the pCR-Bac vector (Invitrogen, Groningen, NL).
The recombinant baculovirus was prepared by means of homologous recombination in SF9 insect cells. The expression plasmids were cotransfected with Baculo-Gold DNA (Pharmingen, Hamburg) using a standard protocol (Pharmingen, Hamburg). Wt virus-free recombinant virus supernatants were selected using plaque assay methods. After that, high-titre virus supernatants were prepared by amplifying 3 times. PDE4B1 was expressed in SF21 cells by infecting 2×10^6 cells/ml with an MOI (multiplicity of infection) between 1 and 10 in the serum-free medium Insect Express Sf9-S2 (PAA, Pasching, Austria). The cells were cultured at 28° C. for 48-72 hours, after which they were pelleted for 5-10 min at 1000×g and 4° C.
The SF21 insect cells were resuspended, at a concentration of approx. 10^7 cells/ml, in ice-cold (4° C.) homogenization buffer (20 mM Tris, pH 8.2, containing the following additions: 140 mM NaCl, 3.8 mM KCl, 1 mM EGTA, 1 mM MgCl2, 10 mM β-mercaptoethanol, 2 mM benzamidine, 0.4 mM Pefablock, […] leupeptin, 10 μM pepstatin A, 5 μM trypsin inhibitor) and disrupted by ultrasonication. The homogenate was then centrifuged for 10 min at 1000×g and the supernatant was stored at −80° C. until subsequent use (see below). The protein content was determined by the Bradford method (BioRad, Munich) using BSA as the standard.
PDE4B1 activity was inhibited by the compounds according to the invention in a modified SPA (scintillation proximity assay) test, supplied by Amersham Biosciences (see procedural instructions “phosphodiesterase [3H]cAMP SPA enzyme assay, code TRKQ 7090”), carried out in 96-well microtitre plates (MTP's). The test volume is 100 μl and contains 20 mM Tris buffer (pH 7.4), 0.1 mg/ml of BSA, 5 mM Mg^2+, 0.5 μM cAMP (including about 50,000 cpm of [3H]cAMP), 1 μl of the respective substance dilution in DMSO and sufficient recombinant PDE (1000×g supernatant, see above) to ensure that 10-20% of the cAMP is converted under the said experimental conditions. […] After a preincubation of 5 min at 37° C., the reaction is started by adding the substrate (cAMP) and the assays are incubated for a further 15 min; after that, they are stopped by adding SPA beads (50 μl). In accordance with the manufacturer's instructions, the SPA beads had previously been resuspended in water, but were then diluted 1:3 (v/v) in water; the diluted solution also contains 3 mM IBMX to ensure a complete PDE activity stop. After the beads have been sedimented (>30 min), the MTP's are analyzed in commercially available luminescence detection devices. The corresponding IC50 values of the compounds for the inhibition of […] activity are determined from the concentration-effect curves by means of non-linear regression.
The inhibitory values determined for the compounds according to the invention follow from the following Table 1, in which the numbers of the compounds correspond to the numbers of the examples.

Chain of PDE4B1 (Q07343 whole entry): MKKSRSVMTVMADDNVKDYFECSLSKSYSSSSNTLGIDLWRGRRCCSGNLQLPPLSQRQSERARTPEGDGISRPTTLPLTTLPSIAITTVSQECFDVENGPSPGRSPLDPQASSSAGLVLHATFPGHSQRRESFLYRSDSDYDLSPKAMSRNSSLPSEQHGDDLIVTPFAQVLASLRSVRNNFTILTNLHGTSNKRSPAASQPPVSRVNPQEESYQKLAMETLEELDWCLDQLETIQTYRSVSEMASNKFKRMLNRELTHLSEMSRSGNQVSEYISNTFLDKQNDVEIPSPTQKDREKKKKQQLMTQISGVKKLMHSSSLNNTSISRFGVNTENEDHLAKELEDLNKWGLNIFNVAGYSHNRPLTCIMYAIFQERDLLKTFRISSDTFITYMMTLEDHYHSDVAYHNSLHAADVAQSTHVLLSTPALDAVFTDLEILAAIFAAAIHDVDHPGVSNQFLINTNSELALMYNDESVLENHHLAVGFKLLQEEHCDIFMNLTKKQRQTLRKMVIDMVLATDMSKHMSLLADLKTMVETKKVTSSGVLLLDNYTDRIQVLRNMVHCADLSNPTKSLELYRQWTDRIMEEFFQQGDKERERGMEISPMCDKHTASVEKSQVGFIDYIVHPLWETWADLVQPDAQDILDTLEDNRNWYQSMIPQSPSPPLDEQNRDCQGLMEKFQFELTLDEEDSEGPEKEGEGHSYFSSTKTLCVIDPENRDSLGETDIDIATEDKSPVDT

SMILES	PDE4 Inhibition [measured as −logIC50 (mol/l)] (PDE4B1)	melting point [°C]
COc1ccc(C2=NN(C3CCN(C(=O)CN4C(=O)CCC4=O)CC3)C(=O)C2(C)C)cc1OC [Compound 2, 1-(2-{4-[3-(3,4-dimethoxyphenyl)-4,4-dimethyl-5-oxo-4,5-dihydro-1H-pyrazol-1-yl]piperidin-1-yl}-2-oxoethyl)pyrrolidine-2,5-dione]	8.09 −logIC50 (mol/l)	218 to 220
CCOc1ccc(C2=NN(C3CCN(C(=O)CN4C(=O)CCC4=O)CC3)C(=O)C2(C)C)cc1OCC [Compound 3, 1-(2-{-4-[3-(3,4-diethoxyphenyl)-4,4-dimethyl-5-oxo-4,5-dihydro-1H-pyrazol-1-yl]piperidin-1-yl}-2-oxoethyl)pyrrolidine-2,5-dione]	7.75 −logIC50 (mol/l)	–
CC1(C)C(=O)N(C2CCN(C(=O)CN3C(=O)CCC3=O)CC2)N=C1c1ccc(OC(F)F)c(OCC2CC2)c1 [Compound 4, 1-[2-(4-{3-[3-(cyclopropylmethoxy)-4-(difluoromethoxy)phenyl]-4,4-dimethyl-5-oxo-4,5-dihydro-1H-pyrazol-1-yl}piperidin-1-yl)-2-oxoethyl]pyrrolidine-2,5-dione]	7.74 −logIC50 (mol/l)	–
COc1ccc(C2=NN(C3CCN(C(=O)CN4C(=O)CCC4=O)CC3)C(=O)C2(C)C)cc1OCC1CC1 [Compound 5, 1-[2-(4-{3-[3-(cyclopropylmethoxy)-4-methoxyphenyl]-4,4-dimethyl-5-oxo-4,5-dihydro-1H-pyrazol-1-yl}piperidin-1-yl)-2-oxoethyl]pyrrolidine-2,5-dione]	7.15 −logIC50 (mol/l)	129 to 131
COc1ccc(C2=NN(C3CCN(C(=O)CN4C(=O)CCC4=O)CC3)C(=O)C2(C)C)c2c1OC1(CCCC1)C2 [Compound 9]	8.23 −logIC50 (mol/l)	–
CCCC1(C)C(=O)N(C2CCN(C(=O)CN3C(=O)CCC3=O)CC2)N=C1c1ccc(OC)c(OC)c1 (centres unmarked) [Compound 11, 1-(2-{4-[3-(3,4-dimethoxyphenyl)-4-methyl-5-oxo-4-propyl-4,5-dihydro-1H-pyrazol-1-yl]piperidin-1-yl}-2-oxoethyl)pyrrolidine-2,5-dione]	8.08 −logIC50 (mol/l)	–
COc1ccc(C2=NN(C3CCN(C(=O)CN4C(=O)c5ccccc5C4=O)CC3)C(=O)C2(C)C)cc1OC [Compound 14, 2-(2-{4-[3-(3,4-dimethoxyphenyl)-4,4-dimethyl-5-oxo-4,5-dihydro-1H-pyrazol-1-yl]piperidin-1-yl}-2-oxoethyl)-1H-isoindole-1,3(2H)-dione]	9.06 −logIC50 (mol/l)	–
COc1ccc(C2=NN(C3CCN(C(=O)CN4C(=O)CCCC4=O)CC3)C(=O)C2(C)C)cc1OC [Compound 15, 1-(2-{4-[3-(3,4-Dimethoxy-phenyl)-4,4-dimethyl-5-oxo-4,5-dihydro-pyrazol-1-yl]-piperidin-1-yl}-2-oxo-ethyl)-piperidine-2,6-dione]	7.90 −logIC50 (mol/l)	–
COc1ccc(C2=NN(C3CCN(C(=O)CN4C(=O)CS(=O)(=O)CC4=O)CC3)C(=O)C2(C)C)cc1OC [Compound 18, 4-(2-{-4-[3-(3,4-dimethoxyphenyl)-4,4-dimethyl-5-oxo-4,5-dihydro-1H-pyrazol-1-yl]piperidin-1-yl}-2-oxoethyl)thiomorpholine-3,5-dione 1,1-dioxide]	8.42 −logIC50 (mol/l)	146 to 148
COc1ccc(C2=NN(C3CCN(C(=O)CN4C(=O)Cc5ccccc54)CC3)C(=O)C2(C)C)cc1OC [Compound 20, 1-(2-{4-[3-(3,4-Dimethoxy-phenyl)-4,4-dimethyl-5-oxo-4,5-dihydro-pyrazol-1-yl]-piperidin-1-yl}-2-oxo-ethyl)-1,3-dihydro-2H-indol-2-one]	8.24 −logIC50 (mol/l)	178

The remaining lines, values ahead:

PDE4 Inhibition [measured as −logIC50 (mol/l)] (PDE4B1)	melting point [°C]	SMILES
8.29 −logIC50 (mol/l)	156 to 157	COc1ccc(C2=NN(C3CCN(C(=O)CN4C(=O)COCC4=O)CC3)C(=O)C2(C)C)cc1OC [Compound 1, 4-(2-{4-[3-(3,4-dimethoxyphenyl)-4,4-dimethyl-5-oxo-4,5-dihydro-1H-pyrazol-1-yl]piperidin-1-yl}-2-oxoethyl)morpholine-3,5-dione]
6.84 −logIC50 (mol/l)	–	COc1ccc(C2=NN(C3CCN(C(=O)CN4C(=O)CCC4=O)CC3)C(=O)C2(C)C)cc1OCC(F)(F)F [Compound 6, 1-[2-(4-{3-[4-methoxy-3-(2,2,2-trifluoroethoxy)phenyl]-4,4-dimethyl-5-oxo-4,5-dihydro-1H-pyrazol-1-yl}piperidin-1-yl)-2-oxoethyl]pyrrolidine-2,5-dione]
7.65 −logIC50 (mol/l)	–	CCOc1cc(C2=NN(C3CCN(C(=O)CN4C(=O)CCC4=O)CC3)C(=O)C2(C)C)ccc1OC [Compound 7, 1-(2-{4-[3-(3-ethoxy-4-methoxyphenyl)-4,4-dimethyl-5-oxo-4,5-dihydro-1H-pyrazol-1-yl]piperidin-1-yl}-2-oxoethyl)pyrrolidine-2,5-dione]
8.53 −logIC50 (mol/l)	–	COc1ccc(C2=NN(C3CCN(C(=O)CN4C(=O)CCC4=O)CC3)C(=O)C2(C)C)c2c1OC(C)(C)C2 [Compound 8]
7.46 −logIC50 (mol/l)	–	CCC1(C)C(=O)N(C2CCN(C(=O)CN3C(=O)CCC3=O)CC2)N=C1c1ccc(OC)c(OC)c1 (centres unmarked) [Compound 12, 1-(2-{4-[3-(3,4-dimethoxyphenyl)-4-ethyl-4-methyl-5-oxo-4,5-dihydro-1H-pyrazol-1-yl]piperidin-1-yl}-2-oxoethyl)pyrrolidine-2,5-dione]
7.79 −logIC50 (mol/l)	–	COc1ccc(C2=NN(C3CCN(C(=O)CN4C(=O)CCC4=O)CC3)C(=O)C23CCCC3)cc1OC [Compound 13, 1-(2-{4-[4-(3,4-dimethoxyphenyl)-1-oxo-2,3-diazaspiro[4.4]non-3-en-2-yl]piperidin-1-yl}-2-oxoethyl)pyrrolidine-2,5-dione]
7.48 −logIC50 (mol/l)	125 to 131	COc1ccc(C2=NN(C3CCN(C(=O)CN4CCCC4=O)CC3)C(=O)C2(C)C)cc1OC [Compound 16, 5-(3,4-dimethoxyphenyl)-4,4-dimethyl-2-{1-[(2-oxopyrrolidin-1-yl)acetyl]piperidin-4-yl}-2,4-dihydro-3H-pyrazol-3-one]
8.27 −logIC50 (mol/l)	–	COc1ccc(C2=NN(C3CCN(C(=O)CN4C(=O)CSCC4=O)CC3)C(=O)C2(C)C)cc1OC [Compound 17, 4-(2-{4-[3-(3,4-dimethoxyphenyl)-4,4-dimethyl-5-oxo-4,5-dihydro-1′-1-pyrazol-1-yl]piperidin-1-yl}-2-oxoethyl)thiomorpholine-3,5-dione]
7.48 −logIC50 (mol/l)	207 to 209	COc1ccc(C2=NN(C3CCN(C(=O)CCN4C(=O)CCC4=O)CC3)C(=O)C2(C)C)cc1OC [Compound 19, 1-(3-{4-[3-(3,4-Dimethoxy-phenyl)-4,4-dimethyl-5-oxo-4,5-dihydro-pyrazol-1-yl]-piperidin-1-yl}-3-oxo-propyl)-pyrrolidine-2,5-dione]
